Results on 8 molecules are retold here after patent US12492173B2, “Herbicidal substituted N-tetrazolyl aryl carboxamides” (Bayer Aktiengesellschaft, priority 2019, dated 2025).

The subject of the first assay is Amaranthus retroflexus. As to the kind of experiment: Pre-emergence herbicidal action, AMARE. In kind it is in vivo. Set-up: key to Herbicidal action against AMARE: % activity: 100 = plants have died, 0 = like control plants. As to conditions: comparative experiment, 20 g of a.i./ha. In a few lines: (§1)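 Pre-emergence soil spray over sandy loam-covered seeds; greenhouse 3 weeks; % visual damage (0% = control, 100% = dead).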
As for `CSc1c(C(=O)Nc2nnnn2C)ccc(C(F)(F)F)c1C[S+](C)[O-]` (stereo not drawn) [Example 1-162], the “Herbicidal action against AMARE” value is given as 100.

Staying with this assay, now noted: dosage 320 g/ha, scored visually after 3 weeks vs untreated controls (100% = plants have died).
In the case of `CCSCc1c(C(F)F)ccc(C(=O)Nc2nnnn2C)c1Cl` [Example 1-323], the “herbicidal activity AMARE” value is 100%.

In the case of `CCn1nnnc1NC(=O)c1ccc(C(F)F)c(C[S+]([O-])CC)c1Cl` (stereo not drawn) [Example 2-324], the “herbicidal activity AMARE” value is reported as 100%.

`CC[S+]([O-])Cc1c(C(F)(F)F)ccc(C(=O)Nc2nnnn2C)c1Cl` (racemic) [Example 1-300]: the “herbicidal activity AMARE” value came out at 100%.

For `Cn1nnnc1NC(=O)c1ccc(C(F)F)c(CS(C)(=O)=O)c1Cl` [Example 1-322], the “herbicidal activity AMARE” value is reported as 100%.

In the case of `CCS(=O)(=O)Cc1c(C(F)F)ccc(C(=O)Nc2nnnn2C)c1Cl` [Example 1-325], the “herbicidal activity AMARE” value is 100%.

`CSc1c(C(=O)Nc2nnnn2C)ccc(C(F)(F)F)c1C[S+](C)[O-]` (stereo not drawn) [Example 1-162]: the “herbicidal activity AMARE” value turned out to be 100%.

For the molecule `CCn1nnnc1NC(=O)c1ccc(C(F)F)c(CS(C)(=O)=O)c1Cl` [Example 2-322], the “herbicidal activity AMARE” value is reported as 100%.

Consider `CCn1nnnc1NC(=O)c1ccc(C(F)(F)F)c(CSC)c1Cl` [Example 2-296], for which the “herbicidal activity AMARE” value turned out to be 100%.

The next assay deals with Polygonum convolvulus. Put plainly: Pre-emergence herbicidal action, POLCO. In kind it is in vivo. To be noted: comparative experiment, 20 g of a.i./ha. In a few lines: as §1
Consider `CSc1c(C(=O)Nc2nnnn2C)ccc(C(F)(F)F)c1C[S+](C)[O-]` (stereo not drawn) [Example 1-162], for which the “Herbicidal action against POLCO” value was 80.

The same assay, now with this note: dosage 320 g/ha, scored visually after 3 weeks vs untreated controls (100% = plants have died).
In the case of `CCSCc1c(C(F)F)ccc(C(=O)Nc2nnnn2C)c1Cl` [Example 1-323], the “herbicidal activity POLCO” value worked out at 100%.

Take `CCn1nnnc1NC(=O)c1ccc(C(F)F)c(C[S+]([O-])CC)c1Cl` (stereo not drawn) [Example 2-324]: the “herbicidal activity POLCO” value worked out at 100%.

In the case of `CC[S+]([O-])Cc1c(C(F)(F)F)ccc(C(=O)Nc2nnnn2C)c1Cl` (racemic) [Example 1-300], the “herbicidal activity POLCO” value was found to be 100%.

Take `Cn1nnnc1NC(=O)c1ccc(C(F)F)c(CS(C)(=O)=O)c1Cl` [Example 1-322]: the “herbicidal activity POLCO” value came to 100%.

For `CCS(=O)(=O)Cc1c(C(F)F)ccc(C(=O)Nc2nnnn2C)c1Cl` [Example 1-325], the “herbicidal activity POLCO” value worked out at 100%.

On to `CSc1c(C(=O)Nc2nnnn2C)ccc(C(F)(F)F)c1C[S+](C)[O-]` (stereo not drawn) [Example 1-162], for which the “herbicidal activity POLCO” value came out at 100%.

In the case of `CCn1nnnc1NC(=O)c1ccc(C(F)F)c(CS(C)(=O)=O)c1Cl` [Example 2-322], the “herbicidal activity POLCO” value is 100%.

As for `CCn1nnnc1NC(=O)c1ccc(C(F)(F)F)c(CSC)c1Cl` [Example 2-296], the “herbicidal activity POLCO” value stood at 100%.

The test system of a further assay is Stellaria media. As to the kind of experiment: Post-emergence herbicidal action, STEME. It is filed as in vivo. Set-up: key: % herbicidal action vs untreated; 100 = plants died, 0 = like control. As to conditions: Dosage 80 g/ha. Put shortly:
(§2)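 Greenhouse weeds grown in sandy loam were sprayed at the one-leaf stage, 2–3 weeks after sowing, with WP or EC formulations at 600–800 l/ha water plus 0.2% wetting agent. Damage scored visually about 3 weeks later, in percent against untreated controls (100% = plants dead).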
Consider `CCS(=O)(=O)Cc1c(C(F)F)ccc(C(=O)Nc2nnnn2C)c1Cl` [Example 1-325], for which the “herbicidal action STEME” value was found to be 100.

Staying with this assay, now noted: post-emergence, dosage 80 g/ha.
For the molecule `CCSCc1c(C(F)F)ccc(C(=O)Nc2nnnn2C)c1Cl` [Example 1-323], the “herbicidal action STEME” value is 100%.

On to `CCn1nnnc1NC(=O)c1ccc(C(F)F)c(C[S+]([O-])CC)c1Cl` (stereo not drawn) [Example 2-324], for which the “herbicidal action STEME” value was 100%.

As to `CC[S+]([O-])Cc1c(C(F)(F)F)ccc(C(=O)Nc2nnnn2C)c1Cl` (racemic) [Example 1-300], the “herbicidal action STEME” value is 100%.

For the molecule `Cn1nnnc1NC(=O)c1ccc(C(F)F)c(CS(C)(=O)=O)c1Cl` [Example 1-322], the “herbicidal action STEME” value was determined as 100%.

Turning to `CSc1c(C(=O)Nc2nnnn2C)ccc(C(F)(F)F)c1C[S+](C)[O-]` (stereo not drawn) [Example 1-162], the “herbicidal action STEME” value amounted to 100%.

As for `CCn1nnnc1NC(=O)c1ccc(C(F)F)c(CS(C)(=O)=O)c1Cl` [Example 2-322], the “herbicidal action STEME” value is listed as 100%.

On to `CCn1nnnc1NC(=O)c1ccc(C(F)(F)F)c(CSC)c1Cl` [Example 2-296], for which the “herbicidal action STEME” value was determined as 100%.

In a further assay the test system is Matricaria inodora. Put plainly: Post-emergence herbicidal action, MATIN. As to conditions: Dosage 80 g/ha. Set-up: key: % herbicidal action vs untreated; 100 = plants died, 0 = like control. It is filed as in vivo. In a few lines:
as §2
As for `CCS(=O)(=O)Cc1c(C(F)F)ccc(C(=O)Nc2nnnn2C)c1Cl` [Example 1-325], the “herbicidal action MATIN” value was determined as 80.

Still in this assay, the particulars now being: post-emergence, dosage 80 g/ha.
As for `CCSCc1c(C(F)F)ccc(C(=O)Nc2nnnn2C)c1Cl` [Example 1-323], the “herbicidal action MATIN” value stood at 100%.

With `CCn1nnnc1NC(=O)c1ccc(C(F)F)c(C[S+]([O-])CC)c1Cl` (stereo not drawn) [Example 2-324], the “herbicidal action MATIN” value amounted to 100%.

`CC[S+]([O-])Cc1c(C(F)(F)F)ccc(C(=O)Nc2nnnn2C)c1Cl` (racemic) [Example 1-300]: the “herbicidal action MATIN” value was 100%.

`Cn1nnnc1NC(=O)c1ccc(C(F)F)c(CS(C)(=O)=O)c1Cl` [Example 1-322]: the “herbicidal action MATIN” value amounted to 80%.

On to `CSc1c(C(=O)Nc2nnnn2C)ccc(C(F)(F)F)c1C[S+](C)[O-]` (stereo not drawn) [Example 1-162], for which the “herbicidal action MATIN” value worked out at 100%.

In the case of `CCn1nnnc1NC(=O)c1ccc(C(F)F)c(CS(C)(=O)=O)c1Cl` [Example 2-322], the “herbicidal action MATIN” value is 90%.

On to `CCn1nnnc1NC(=O)c1ccc(C(F)(F)F)c(CSC)c1Cl` [Example 2-296], for which the “herbicidal action MATIN” value was 90%.

In another assay the test system is Pharbitis purpurea. As to the kind of experiment: Pre-emergence herbicidal action, PHBPU. It is filed as in vivo. As to conditions: comparative experiment, 20 g of a.i./ha. Put shortly:
as §1
Consider `CSc1c(C(=O)Nc2nnnn2C)ccc(C(F)(F)F)c1C[S+](C)[O-]` (stereo not drawn) [Example 1-162], for which the “Herbicidal action against PHBPU” value stood at 60.

Still in this assay, the particulars now being: dosage 320 g/ha, scored visually after 3 weeks vs untreated controls (100% = plants have died).
Consider `CCSCc1c(C(F)F)ccc(C(=O)Nc2nnnn2C)c1Cl` [Example 1-323], for which the “herbicidal activity PHBPU” value amounted to 100%.

Take `CCn1nnnc1NC(=O)c1ccc(C(F)F)c(C[S+]([O-])CC)c1Cl` (stereo not drawn) [Example 2-324]: the “herbicidal activity PHBPU” value came out at 100%.

On to `CC[S+]([O-])Cc1c(C(F)(F)F)ccc(C(=O)Nc2nnnn2C)c1Cl` (racemic) [Example 1-300], for which the “herbicidal activity PHBPU” value came out at 100%.

On to `Cn1nnnc1NC(=O)c1ccc(C(F)F)c(CS(C)(=O)=O)c1Cl` [Example 1-322], for which the “herbicidal activity PHBPU” value is 100%.

On to `CCS(=O)(=O)Cc1c(C(F)F)ccc(C(=O)Nc2nnnn2C)c1Cl` [Example 1-325], for which the “herbicidal activity PHBPU” value was determined as 100%.

Turning to `CSc1c(C(=O)Nc2nnnn2C)ccc(C(F)(F)F)c1C[S+](C)[O-]` (stereo not drawn) [Example 1-162], the “herbicidal activity PHBPU” value was found to be 90%.

As to `CCn1nnnc1NC(=O)c1ccc(C(F)F)c(CS(C)(=O)=O)c1Cl` [Example 2-322], the “herbicidal activity PHBPU” value turned out to be 100%.

With `CCn1nnnc1NC(=O)c1ccc(C(F)(F)F)c(CSC)c1Cl` [Example 2-296], the “herbicidal activity PHBPU” value is listed as 90%.

For the next assay, the system named is Avena fatua. Put plainly: Post-emergence herbicidal action, AVEFA. It is filed as in vivo. Set-up: key: % herbicidal action vs untreated; 100 = plants died, 0 = like control. As to conditions: Dosage 80 g/ha. In a few lines:
as §2
On to `CCS(=O)(=O)Cc1c(C(F)F)ccc(C(=O)Nc2nnnn2C)c1Cl` [Example 1-325], for which the “herbicidal action AVEFA” value was 90.

Still in this assay, the particulars now being: comparative experiment, post-emergence, 5 g of a.i./ha.
In the case of `CCSCc1c(C(F)F)ccc(C(=O)Nc2nnnn2C)c1Cl` [Example 1-323], the “Herbicidal action against AVEFA” value came out at 70.

Staying with this assay, now noted: post-emergence, dosage 80 g/ha.
Turning to `CCSCc1c(C(F)F)ccc(C(=O)Nc2nnnn2C)c1Cl` [Example 1-323], the “herbicidal action AVEFA” value stood at 100%.

For `CCn1nnnc1NC(=O)c1ccc(C(F)F)c(C[S+]([O-])CC)c1Cl` (stereo not drawn) [Example 2-324], the “herbicidal action AVEFA” value is given as 100%.

Turning to `CC[S+]([O-])Cc1c(C(F)(F)F)ccc(C(=O)Nc2nnnn2C)c1Cl` (racemic) [Example 1-300], the “herbicidal action AVEFA” value is recorded as 100%.

Regarding `Cn1nnnc1NC(=O)c1ccc(C(F)F)c(CS(C)(=O)=O)c1Cl` [Example 1-322], the “herbicidal action AVEFA” value is recorded as 80%.

As for `CSc1c(C(=O)Nc2nnnn2C)ccc(C(F)(F)F)c1C[S+](C)[O-]` (stereo not drawn) [Example 1-162], the “herbicidal action AVEFA” value was 100%.

With `CCn1nnnc1NC(=O)c1ccc(C(F)F)c(CS(C)(=O)=O)c1Cl` [Example 2-322], the “herbicidal action AVEFA” value came to 80%.

Regarding `CCn1nnnc1NC(=O)c1ccc(C(F)(F)F)c(CSC)c1Cl` [Example 2-296], the “herbicidal action AVEFA” value stood at 100%.

The subject of another assay is Polygonum convolvulus. As to the kind of experiment: Post-emergence herbicidal action, POLCO. To be noted: Dosage 80 g/ha. In kind it is in vivo. Put shortly: as §2
Regarding `CCS(=O)(=O)Cc1c(C(F)F)ccc(C(=O)Nc2nnnn2C)c1Cl` [Example 1-325], the “herbicidal action POLCO” value came to 90.

Staying with this assay, now noted: post-emergence, dosage 80 g/ha.
Turning to `CCSCc1c(C(F)F)ccc(C(=O)Nc2nnnn2C)c1Cl` [Example 1-323], the “herbicidal action POLCO” value was 90%.

For the molecule `CCn1nnnc1NC(=O)c1ccc(C(F)F)c(C[S+]([O-])CC)c1Cl` (stereo not drawn) [Example 2-324], the “herbicidal action POLCO” value was 100%.

On to `CC[S+]([O-])Cc1c(C(F)(F)F)ccc(C(=O)Nc2nnnn2C)c1Cl` (racemic) [Example 1-300], for which the “herbicidal action POLCO” value is on record as 100%.

For `Cn1nnnc1NC(=O)c1ccc(C(F)F)c(CS(C)(=O)=O)c1Cl` [Example 1-322], the “herbicidal action POLCO” value is 90%.

For `CSc1c(C(=O)Nc2nnnn2C)ccc(C(F)(F)F)c1C[S+](C)[O-]` (stereo not drawn) [Example 1-162], the “herbicidal action POLCO” value is 90%.

In the case of `CCn1nnnc1NC(=O)c1ccc(C(F)F)c(CS(C)(=O)=O)c1Cl` [Example 2-322], the “herbicidal action POLCO” value was found to be 100%.

With `CCn1nnnc1NC(=O)c1ccc(C(F)(F)F)c(CSC)c1Cl` [Example 2-296], the “herbicidal action POLCO” value was found to be 100%.
